Where a name gives a salt, the structure may show the parent alone.
The compounds below were run against T1, human IDO1 (Homo sapiens, UniProt P14902) (assay: IDO inhibition assay in HEK293 cells stably expressing human IDO1 (kynurenine production, Ehrlich reagent, absorbance 490 nm)). Settings: 20 hours incubation with compound, 500 nM reference standard = 100% inhibition, read-out: IDO1 HEK Human IC50.
T1 construct: expressed in transfected cells
Type: cell-based
Summary of the method: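 Kynurenine output of stably IDO1-transfected HEK293 cells was measured by absorbance at 490 nm after mixing supernatant with 0.2% Ehrlich reagent, following TCA stop (0.2% final, 50° C., 30 min). Cells were incubated 20 hours with compound. Inhibition was scaled between DMSO and 500 nM reference standard.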

T1 sequence (P14902 whole entry): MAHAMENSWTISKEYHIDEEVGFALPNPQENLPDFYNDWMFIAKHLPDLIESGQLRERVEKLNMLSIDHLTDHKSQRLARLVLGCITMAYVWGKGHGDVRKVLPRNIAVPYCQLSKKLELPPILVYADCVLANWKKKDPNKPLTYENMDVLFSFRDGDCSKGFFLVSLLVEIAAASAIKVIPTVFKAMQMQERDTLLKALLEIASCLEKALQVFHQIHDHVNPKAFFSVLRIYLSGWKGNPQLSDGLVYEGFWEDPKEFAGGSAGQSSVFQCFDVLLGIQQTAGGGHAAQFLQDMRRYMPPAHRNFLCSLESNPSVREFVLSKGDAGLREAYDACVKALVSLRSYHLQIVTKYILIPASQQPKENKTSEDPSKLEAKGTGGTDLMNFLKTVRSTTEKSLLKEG

| SMILES | IC50 |
| --- | --- |
| Cc1ccc(NC(=O)Nc2cc(-c3ccccc3-c3nnn[nH]3)nc(N(Cc3ccc(F)cc3)CC(C)C)c2)cc1 [Example 78, 1-(2-(2-(1H-tetrazol-5-yl)phenyl)-6-((4-fluorobenzyl)(isobutyl)amino)pyridin-4-yl)-3-(p-tolyl)urea, TFA] | 8.2 nM |
| CC(C)CN(Cc1ccccc1)c1nc(Nc2nc3ccccc3o2)cc(-c2ccccc2-c2nnn[nH]2)n1 [Example 102, 6-(2-(1H-tetrazol-5-yl)phenyl)-N4-(benzo [d]oxazol-2-yl)-N2-benzyl-N2-isobutylpyrimidine-2,4-diamine] | 8.6 nM |
| Cc1ccc(C(=O)Nc2cc(-c3ccccc3-c3nnn[nH]3)nc(N(Cc3ccccc3)CC(C)C)n2)c(F)c1 [Example 9, N-(6-(2-(1H-tetrazol-5-yl)phenyl)-2-(benzyl(isobutyl)amino)pyrimidin-4-yl)-2-fluoro-4-methylbenzamide] | 74 nM |
| CCCN(Cc1ccc(F)cc1)c1cc(NC(=O)Nc2ccc(Cl)cc2F)cc(-c2ccccc2-c2noc(=O)[nH]2)n1 [Example 13, 1-(4-chloro-2-fluorophenyl)-3-(2-((4-fluorobenzyl)(propyl)amino)-6-(2-(5-oxo-4,5-dihydro-1,2,4-oxadiazol-3-yl)phenyl)pyridin-4-yl)urea] | 13.2 nM |
| CCN(Cc1ccccc1)c1cc(NC(=O)Cc2ccc(C)cc2)cc(-c2ccccc2-c2nnn[nH]2)n1 [Example 1, N-(2-(2-(1H-tetrazol-5-yl)phenyl)-6-(benzyl(ethyl)amino)pyridin-4-yl)-2-(p-tolyl)acetamide] | 45.4 nM |
| CCC(CC(=O)O)c1cc(Nc2ccc3nc(C)sc3c2)cc(N(Cc2ccccc2)CC(C)C)n1 (single isomer, unassigned) [Example 243, 3-(6-(benzyl(isobutyl)amino)-4-((2-methylbenzo [d]thiazol-6-yl)amino)pyridin-2-yl)pentanoic acid] | 1610 nM |
| CC(C)CN(Cc1ccccc1)c1cc(Nc2ccccc2F)cc(-c2ccccc2-c2nnn[nH]2)n1 [Example 179, 6-(2-(1H-tetrazol-5-yl)phenyl)-N2-benzyl-N4-(2-fluorophenyl)-N2-isobutylpyridine-2,4-diamine] | 10.9 nM |
| CC(C)CN(Cc1ccccc1)c1cc(Nc2cccc(OC(F)(F)C(F)F)c2)cc(-c2ccccc2-c2nnn[nH]2)n1 [Example 189, 6-(2-(1H-tetrazol-5-yl)phenyl)-N2-benzyl-N2-isobutyl-N4-(3-(1,1,2,2-tetrafluoroethoxy)phenyl)pyridine-2,4-diamine] | 9.3 nM |
| CCCN(Cc1ccccc1)c1cc(NC(=O)Cc2ccc(C)cc2)cc(-c2ccccc2C(=O)NS(=O)(=O)C2CC2)n1 [Example 19, 2-(6-(benzyl(propyl)amino)-4-(2-(p-tolyl)acetamido)pyridin-2-yl)-N-(cyclopropylsulfonyl)benzamide] | 485 nM |
| CCN(Cc1ccccc1)c1cc(NC(=O)Nc2ccc(C(F)(F)F)cc2)cc(-c2ccccc2-c2nnn[nH]2)n1 [Example 276] | 148 nM |
| CCCN(Cc1ccccc1)c1cc(NC(=O)Nc2ccc(C)cc2)cc(-c2ccccc2S(=O)(=O)NC(C)=O)n1 [Example 35, N-((2-(6-(benzyl (propyl)amino)-4-(3-(p-tolyl)ureido)pyridin-2-yl)phenyl)sulfonyl) acetamide] | 256 nM |
| CC(C)CN(Cc1ccccc1)c1cc(Nc2cccnc2F)cc(-c2ccccc2-c2nnn[nH]2)n1 [Example 160, 6-(2-(1H-tetrazol-5-yl)phenyl)-N2-benzyl-N4-(2-fluoropyridin-3-yl)-N2-isobutylpyridine-2,4-diamine] | 23.4 nM |
| Cc1ccc(CC(=O)Nc2cc(-c3ccccc3-c3nnn[nH]3)nc(N3CCCCCC3)c2)cc1 [Example 127, N-(2-(2-(1H-tetrazol-5-yl)phenyl)-6-(azepan-1-yl)pyridin-4-yl)-2-(p-tolyl)acetamide] | 1050 nM |
| CC(C)CN(Cc1ccccc1)c1cc(Nc2ncccc2C#N)cc(-c2ccccc2-c2nnn[nH]2)n1 [Example 163, 2-((2-(2-(1H-tetrazol-5-yl)phenyl)-6-(benzyl(isobutyl)amino)pyridin-4-yl)amino)nicotinonitrile] | 736 nM |
| CC(C)CN(Cc1ccccc1)c1cc(NC(=O)Nc2ccc(F)cc2F)cc(-c2ccccc2-c2nnn[nH]2)n1 [Example 237, 1-(2-(2-(1H-tetrazol-5-yl)phenyl)-6-(benzyl(isobutyl)amino)pyridin-4-yl)-3-(2,4-difluorophenyl)urea] | 131 nM |
| CCN(CCC(F)(F)F)c1nc(NC(=O)Nc2ccc(C)cc2)cc(-c2ccccc2-c2nnn[nH]2)n1 [Example 99, 1-(6-(2-(1H-tetrazol-5-yl)phenyl)-2-(ethyl(3,3,3-trifluoropropyl)amino)pyrimidin-4-yl)-3-(p-tolyl)urea] | 3660 nM |
| Cc1cnc(Nc2cc(-c3ccccc3-c3nnn[nH]3)nc(N(Cc3ccccc3)CC(C)C)c2)cn1 [Example 49, 6-(2-(1H-tetrazol-5-yl)phenyl)-N2-benzyl-N2-isobutyl-N4-(5-methylpyrazin-2-yl)pyridine-2,4-diamine, TFA] | 31.6 nM |

| SMILES | IC50 |
| --- | --- |
| CCCN(Cc1ccccc1)c1cc(NC(=O)Nc2ccc(OC(F)(F)F)cc2)cc(-c2ccccc2-c2nnn[nH]2)n1 [Example 268, 1-(2-(2-(1H-tetrazol-5-yl)phenyl)-6-(benzyl(propyl)amino)pyridin-4-yl)-3-(4-(trifluoromethoxy)phenyl)urea] | 30.2 nM |
| CCN(Cc1ccccc1)c1nc(NC(=O)Cc2ccc(C)cc2)cc(-c2ccccc2-c2nnn[nH]2)n1 [Example 7, N-(6-(2-(1H-tetrazol-5-yl)phenyl)-2-(benzyl(ethyl)amino)pyrimidin-4-yl)-2-(p-tolyl)acetamide] | 89 nM |
| Cc1nccc(Nc2cc(-c3ccccc3-c3nnn[nH]3)nc(N(Cc3ccccc3)CC(C)C)c2)n1 [Example 140, 6-(2-(1H-tetrazol-5-yl)phenyl)-N2-benzyl-N2-isobutyl-N4-(2-methylpyrimidin-4-yl)pyridine-2,4-diamine] | 142 nM |
| O=C(Nc1ccc(OC(F)(F)F)cc1)Nc1cc(-c2ccccc2-c2nnn[nH]2)nc(N(Cc2ccccc2)Cc2ccccc2)c1 [Example 273, 1-(2-(2-(1H-Tetrazol-5-yl)phenyl)-6-(dibenzylamino)pyridin-4-yl)-3-(4-(trifluoromethoxy)-phenyl)urea] | 609 nM |
| Cc1ccc(CC(=O)Nc2cc(-c3ccccc3-c3nnn[nH]3)nc(N3CCc4ccccc4C3)n2)cc1 [Example 94, N-(6-(2-(1H-tetrazol-5-yl)phenyl)-2-(3,4-dihydroisoquinolin-2(1H)-yl)pyrimidin-4-yl)-2-(p-tolyl)acetamide] | 260 nM |
| Cc1ccc(CC(=O)Nc2cc(-c3ccccc3-c3nnn[nH]3)nc(N(Cc3ccccc3)CC(C)C)c2)c(F)c1 [Example 79, N-(2-(2-(1H-tetrazol-5-yl)phenyl)-6-(benzyl(isobutyl)amino)pyridin-4-yl)-2-(2-fluoro-4-methylphenyl)acetamide, TFA] | 18.3 nM |
| CCCN(Cc1ccccc1)c1cc(NC(=O)C2(c3ccccc3)CC2)cc(-c2ccccc2-c2nn[nH]n2)n1 [Example 223, N-(2-(2-(2H-tetrazol-5-yl)phenyl)-6-(benzyl(propyl)amino)pyridin-4-yl)-1-phenylcyclopropanecarboxamide] | 964 nM |
| CCCN(Cc1ccccc1)c1cc(NC(=O)Cc2cccc(Br)c2)cc(-c2ccccc2-c2nn[nH]n2)n1 [Example 217, N-(2-(2-(2H-tetrazol-5-yl)phenyl)-6-(benzyl(propyl)amino)pyridin-4-yl)-2-(3-bromophenyl)acetamide] | 239 nM |
| CCCN(Cc1ccccc1)c1cc(NC(=O)Cc2ccc(C)cc2)cc(-c2ccccc2C(=O)NS(=O)(=O)N2CCN(C)CC2)n1 [Example 25, 2-(6-(benzyl(propyl)amino)-4-(2-(p-tolyl)acetamido)pyridin-2-yl)-N-((4-methylpiperazin-1-yl)sulfonyl)benzamide] | 2910 nM |
| CC(C)CN(CC(C)C)c1cc(NC(=O)Nc2ccccc2F)cc(-c2cc(F)ccc2C(=O)O)n1 [Example 251, 2-(6-(diisobutylamino)-4-(3-(2-fluorophenyl)ureido)pyridin-2-yl)-4-fluorobenzoic acid] | 2000 nM |
| CCCN(Cc1ccccc1)c1cc(NC(=O)Cc2ccc(C)cc2)cc(-c2cc(C)ccc2-c2nnn[nH]2)n1 [Example 303, N-(2-(Benzyl(propyl)amino)-6-(5-methyl-2-(1H-tetrazol-5-yl)phenyl)pyridin-4-yl)-2-(p-tolyl)acetamide] | 102 nM |
| CCCN(Cc1ccccc1)c1cc(NC(=O)Nc2ccc(F)cc2F)cc(-c2ccccc2-c2nnn[nH]2)n1 [Example 71, 1-(2-(2-(1H-tetrazol-5-yl)phenyl)-6-(benzyl(propyl)amino)pyridin-4-yl)-3-(2,4-difluorophenyl)urea, TFA] | 32.2 nM |
| Cc1ccc(NC(=O)Nc2cc(-c3ccccc3-c3nnn[nH]3)nc(N(CC(C)C)C3CCCCC3)n2)cc1 [Example 2, 1-(6-(2-(1H-tetrazol-5-yl)phenyl)-2-(cyclohexyl(isobutyl)amino)pyrimidin-4-yl)-3-(p-tolyl)urea] | 1040 nM |
| CCCN(c1cc(NC(=O)Nc2ccc(C)cc2)cc(-c2ccccc2-c2nnn[nH]2)n1)C1CCC(C)(C)CC1 [Example 119, 1-(2-(2-(1H-tetrazol-5-yl)phenyl)-6-((4,4-dimethylcyclohexyl) (propyl)amino)pyridin-4-yl)-3-(p-tolyl)urea] | 2010 nM |
| CC(C)CN(Cc1ccccc1)c1cc(Nc2cccc(C(F)F)c2)cc(-c2ccccc2-c2nnn[nH]2)n1 [Example 191, 6-(2-(1H-tetrazol-5-yl)phenyl)-N2-benzyl-N4-(3-(difluoromethyl)phenyl)-N2-isobutylpyridine-2,4-diamine] | 26.4 nM |
| CCCN(c1cc(NC(=O)Nc2ccc(C)cc2)cc(-c2cc(F)ccc2C(=O)O)n1)C1CCCCC1 [Example 256] | 980 nM |
| CCC(CC(=O)O)c1cc(Nc2ccc(Cl)cc2)cc(N(Cc2ccccc2)C(C)C)n1 (stereo not shown) [Example 241, 3-(6-(benzyl(isopropyl)amino)-4-((4-chlorophenyl)amino)pyridin-2-yl)pentanoic acid] | 21.3 nM |

Reference: patent US12059420B2 (BRISTOL-MYERS SQUIBB COMPANY, priority 2018, dated 2024)
